Several values for one entry are separate records, joined by “and”; a condition that tells them apart may be missing. Identical values can stand only once.
Assays:
[1] = in vitro; details: male, Wistar, rat, pH 7.4
Experimental: (§1) British Joumal of Cancer (1997) 76(9), 1170-1180 ? […] Livers were perfused with 5-FU alone at a dose of 15 mg kg-' body weight or with 5-FU + GW776 at doses of 15 mg 5-FU kg-' body weight and 0.5 mg GW776 kg-' body weight injected 1 h before 5-FU. […] Keywords: 5-fluorouracil; 5-ethynyluracil (GW776); 19F nuclear magnetic resonance; modulation of 5-fluorouracil metabolism; fluoroacetate; 2-fluoro-3-hydroxypropionic acid; isolated perfused rat liver 5-Fluorouracil (5-FU) is one of the most commonly used anti- cancer agents for treatment of solid tumours. Common clinical adverse reactions include myelosuppression, diarrhoea, vomiting and mucositis. […] 5-Ethynyluracil (GW776) is a potent inactivator of the catabolic pathway of 5-FU acting on dihydropyrimidine dehydrogenase (DPD), the enzyme that converts 5-FU into its first catabolite, 5,6-dihydro-5-fluorouracil (FUH2), thereby preserving 5-FU from its rapid and extensive catabolism (Porter et al, 1992; Baccanari et al, 1993; Spector et al, 1993). […] MATERIALS AND METHODS IPRL experiments Livers from male Wistar rats (Iffa Credo, Lyon, France) were isolated and perfused with recirculation of the perfusion medium according to the design originally described by Brauer et al (1951) and modified by Sabouraud et al (1993). The recirculating perfusate (approximately 180 ml), oxygenated with oxygen- carbon dioxide (95%:5%), was a Krebs-Ringer bicarbonate buffer supplemented with glucose (1.3 mM) and bovine serum albumin (0.5%). The perfusate (pH 7.4) was recirculated at a mean flow rate of 10 ml min-1 g-' of liver. The experiments were carried out with solutions of 5-FU prepared immediately before use at a dose of 15 mg kg-' body weight.

[2] = test system: isolated perfused rat liver; test: in vitro
Experimental: as §1

[3] = test system: isolated perfused rat liver; test: Liver viability in IPRL experiments (LDH activity in perfusate, bile flow); details: Table 1, text
Experimental: as §1, with “The recirculating perfusate (approximately 180 ml), oxygenated with oxygen- carbon dioxide (95%:5%), was a Krebs-Ringer bicarbonate buffer supplemented with glucose (1.3 mM) and bovine serum albumin (0.5%). The perfusate (pH 7.4) was recirculated at a mean flow rate of 10 ml min-1 g-' of liver. The experiments were carried out with solutions of 5-FU prepared immediately before use at a dose of 15 mg kg-' body weight.” left out

[4] = parameters: method as in Khor et al, 1996; details: humans, without GW776; ref Khor et al, 1996; cited from earlier work
[5] = Control experiments without liver: chemical transformation in perfusate (19F-NMR); type: physicochemical
[6] = parameters: method as in Zhang et al, 1992, 1993; details: rats; ref Zhang et al, 1992, 1993; cited from earlier work
[7] = test system: isolated perfused rabbit heart; test: Cardiotoxicity on the isolated perfused rabbit heart model; details: unpublished data
[8] = test system: MOPC-315 s.c. tumours; parameters: method as in Davis et al (1995); details: compared with mice treated with 5-FU alone; ref Davis et al (1995); cited from earlier work
[9] = test system: DPD; parameters: method as in Baccanari et al (1993); details: 1 h or 6 h after single dose GW776 2 mg kg-1 p.o.; compared with > 96% of this study; ref Baccanari et al (1993); cited from earlier work
[10] = test system: dogs; parameters: method as in Davis et al (1994); details: 26-h continuous infusion of 5-FU at 1.6, 4 or 16 mg kg-1 24 h-1; ref Davis et al (1994); cited from earlier work
[11] = test system: rat tumour models; parameters: method as in Cao et al, 1994; details: ref Cao et al, 1994; cited from earlier work
[12] = test system: mouse tumour models; parameters: method as in Baccanari et al, 1993; details: ref Baccanari et al, 1993; cited from earlier work
[13] = Table 4, liver acid-insoluble extract
[14] = FBAL 16.6 mg kg-1 circulated 3 h without liver, after concentration
[15] = GW776 0.5 mg kg-1 1 h before 5-FU 15 mg kg-1

O=c1[nH]cc(F)c(=O)[nH]1 [5-FU, 5-fluorouracil]
recovery [1]: 0% | Unmetabolized 5-FU, global recovery [2]: All 5-FU was metabolized | 5', 2' and 3' FUMP in acid-insoluble extract [2, 13]: 0 Per cent of Injected dose | 5-FU in acid-insoluble extract [2, 13]: 0 Per cent of Injected dose | 5-FU in acid-soluble extract ([2]; Table 4, liver acid-soluble extract): 0 Per cent of Injected dose | Total in acid-soluble extract ([2]; Table 4, liver acid-soluble extract, P<0.01): 13 + 4 Per cent of Injected dose and 13 Per cent of Injected dose | 5-FU in perfusate ([2]; male, Wistar, rat, pH 7.4): 0 Per cent of Injected dose | Unmetabolized 5-FU ([2]; male, Wistar, rat, pH 7.4): 0% of injected dose | LDH activity compared with control experiments [3]: no significant difference | Half-life of 5-FU [4]: approximately 14 min | Chemical transformation in perfusate ([5]; perfusate bubbled with carbogen for 3 h at 37 C): not chemically transformed

NCC(F)C(=O)O (stereo not drawn) [FBAL, alpha-fluoro-beta-alanine]
Retention in various tissues (mainly liver, heart and brain) [6]: up to 8 days | Adduct of FBAL with a-glucose as share of all the fluorinated compounds detected [5, 14]: 2.4% | Adduct of FBAL with beta-glucose as share of all the fluorinated compounds detected [5, 14]: 28.3% | CFBAL as share of all the fluorinated compounds detected [5, 14]: 49.6% | F- as share of all the fluorinated compounds detected [5, 14]: 1.4% | FBAL as share of all the fluorinated compounds detected [5, 14]: 18.3% | FBAL signal share ([5]; solution of FBAL in perfusion medium over 3 h): 98.9%

O=C(O)C(F)CO (stereo not drawn) [FHPA, 2-fluoro-3-hydroxypropionic acid]
Cardiotoxicity ([7]; 0.01 mg kg-1 (lowest dose)): did not generate cardiotoxic symptoms | Cardiotoxicity ([7]; 1.5 mg kg-1 (highest dose)): highly cardiotoxic

C#Cc1c[nH]c(=O)[nH]c1=O [GW776, 5-ethynyluracil]
Incorporation of 5-FU into RNA in tumours [8]: enhanced the incorporation | Inhibition of rat liver ability to catalyse 5-FU degradation ([2]; GW776 0.5 mg kg-1 1 h before 5-FU): > 96% | Decrease in FBAL formation [2, 15]: approximately 110 factor | Decrease in fluoride ion formation [2, 15]: approximately 10 factor | Decrease of the amount of 5-FU catabolites in the presence of GW776 [2, 15]: 27 factor | Increase of 5-FU anabolites [2, 15]: approximately 7 factor | Inhibition of DPD activity in liver extracts [9]: the same extent of inhibition | Protection from 5-FU-induced neurotoxicity [10]: protected dogs from the neurotoxicity | Therapeutic index of 5-FU [11]: increases the therapeutic index of 5-FU | Therapeutic index of 5-FU [12]: increases the therapeutic index of 5-FU

Reference: publication PMC2228116 (British Journal of Cancer, 1997)
